{"source": "ChEMBL document CHEMBL2046434", "about": "“Morita-Baylis-Hillman adducts: biological activities and potentialities to the discovery of new cheaper drugs” (Bioorg Med Chem, 2012)", "key": {"HeLa": {"system": "HeLa", "test": "Growth inhibition of human HeLa cells at 5 uM", "format": "functional", "conditions": "read-out: GI"}, "Candida albicans": {"system": "Candida albicans", "test": "Antimicrobial activity against Candida albicans", "format": "functional"}, "Leishmania amazonensis": {"system": "Leishmania amazonensis", "test": "Antileishmanial activity against Leishmania amazonensis promastigotes", "format": "functional, organism-based"}, "Aspergillus niger": {"system": "Aspergillus niger", "test": "Antimicrobial activity against Aspergillus niger", "format": "functional"}, "Trypanosoma cruzi [1]": {"system": "Trypanosoma cruzi", "test": "Antitrypanosomal activity against Trypanosoma cruzi epimastigotes", "format": "functional, organism-based"}, "Trypanosoma cruzi [2]": {"system": "Trypanosoma cruzi", "test": "Antitrypanosomal activity against Trypanosoma cruzi trypomastigotes", "format": "functional, organism-based"}}, "data": [{"smiles": "Cc1ccc(S(=O)(=O)NC(/C(=C/c2ccoc2)[N+](=O)[O-])c2ccccc2)cc1", "note": "(stereo unspecified)", "values": [{"measurement": "inhibition of growth at 5 µM", "setting": "HeLa", "value": 28, "unit": "%"}]}, {"smiles": "C=C(C(=O)OC)C(O)c1ccc([N+](=O)[O-])cc1", "note": "(stereo unspecified)", "values": [{"measurement": "zone of inhibition", "setting": "Candida albicans", "value": 13, "unit": "mm"}, {"measurement": "IC50", "setting": "Leishmania amazonensis", "value": 196, "unit": "µM"}]}, {"smiles": "C=C(C(=O)OCC)C(O)c1cccc([N+](=O)[O-])c1", "note": "(stereo unspecified)", "values": [{"measurement": "zone of inhibition", "setting": "Candida albicans", "value": 14, "unit": "mm"}, {"measurement": "zone of inhibition", "setting": "Aspergillus niger", "value": 13, "unit": "mm"}]}, {"smiles": "C=C(C#N)C(O)c1ccc(F)cc1", "note": "(stereo unspecified)", "values": [{"measurement": "zone of inhibition", "setting": "Candida albicans", "value": 13, "unit": "mm"}, {"measurement": "zone of inhibition", "setting": "Aspergillus niger", "value": 11, "unit": "mm"}]}, {"smiles": "Cc1ccc(S(=O)(=O)NC(/C(=C/c2ccco2)[N+](=O)[O-])c2ccco2)cc1", "note": "(stereo unspecified)", "values": [{"measurement": "inhibition of growth at 5 µM", "setting": "HeLa", "value": 32, "unit": "%"}]}, {"smiles": "C=C(C(=O)OCC)C(O)c1ccccc1OC", "note": "(stereo unspecified)", "values": [{"measurement": "zone of inhibition", "setting": "Candida albicans", "value": 12, "unit": "mm"}]}, {"smiles": "C=C(C#N)C(O)c1ccccc1OC", "note": "(stereo unspecified)", "values": [{"measurement": "zone of inhibition", "setting": "Aspergillus niger", "value": 12, "unit": "mm"}]}, {"smiles": "C=C(C(=O)OCC)C(O)c1ccc([N+](=O)[O-])cc1", "note": "(stereo unspecified)", "values": [{"measurement": "zone of inhibition", "setting": "Candida albicans", "value": 11, "unit": "mm"}, {"measurement": "zone of inhibition", "setting": "Aspergillus niger", "value": 12, "unit": "mm"}]}, {"smiles": "C=C(C#N)C(O)c1ccc(Cl)cc1Cl", "note": "(stereo unspecified)", "values": [{"measurement": "zone of inhibition", "setting": "Candida albicans", "value": 11, "unit": "mm"}, {"measurement": "zone of inhibition", "setting": "Aspergillus niger", "value": 13, "unit": "mm"}]}, {"smiles": "C=C(C(=O)OCC)C(O)c1ccc(Cl)cc1Cl", "note": "(stereo unspecified)", "values": [{"measurement": "zone of inhibition", "setting": "Candida albicans", "value": 15, "unit": "mm"}, {"measurement": "zone of inhibition", "setting": "Aspergillus niger", "value": 11, "unit": "mm"}]}, {"smiles": "Cc1ccc(S(=O)(=O)NC(/C(=C/c2ccsc2)[N+](=O)[O-])c2ccccc2)cc1", "note": "(stereo unspecified)", "values": [{"measurement": "inhibition of growth at 5 µM", "setting": "HeLa", "value": 45, "unit": "%"}]}, {"smiles": "C=C(C(=O)OCC)C(O)c1ccc(F)cc1", "note": "(stereo unspecified)", "values": [{"measurement": "zone of inhibition", "setting": "Candida albicans", "value": 15, "unit": "mm"}, {"measurement": "zone of inhibition", "setting": "Aspergillus niger", "value": 14, "unit": "mm"}]}, {"smiles": "COc1ccc(/C=C(/CCC(C)=O)[N+](=O)[O-])cc1", "values": [{"measurement": "inhibition of growth at 5 µM", "setting": "HeLa", "value": "> 70", "unit": "%"}]}, {"smiles": "C=C(C(=O)CC)C(O)c1ccc(Cl)cc1", "note": "(stereo unspecified)", "values": [{"measurement": "zone of inhibition", "setting": "Candida albicans", "value": 12, "unit": "mm"}, {"measurement": "zone of inhibition", "setting": "Aspergillus niger", "value": 13, "unit": "mm"}]}, {"smiles": "C=C(C(=O)OCC)C(O)c1ccc(Cl)cc1", "note": "(stereo unspecified)", "values": [{"measurement": "zone of inhibition", "setting": "Candida albicans", "value": 12, "unit": "mm"}, {"measurement": "zone of inhibition", "setting": "Aspergillus niger", "value": 11, "unit": "mm"}]}, {"smiles": "C=C(C#N)C(O)c1ccc([N+](=O)[O-])cc1", "note": "(stereo unspecified)", "values": [{"measurement": "zone of inhibition", "setting": "Candida albicans", "value": 12, "unit": "mm"}, {"measurement": "IC50", "setting": "Trypanosoma cruzi [1]", "value": 28.5, "unit": "µM"}, {"measurement": "IC50", "setting": "Trypanosoma cruzi [2]", "value": 25.5, "unit": "µM"}, {"measurement": "zone of inhibition", "setting": "Aspergillus niger", "value": 12, "unit": "mm"}]}, {"smiles": "C=C(C(=O)OCC)C(O)c1ccccc1Cl", "note": "(stereo unspecified)", "values": [{"measurement": "zone of inhibition", "setting": "Candida albicans", "value": 13, "unit": "mm"}, {"measurement": "zone of inhibition", "setting": "Aspergillus niger", "value": 14, "unit": "mm"}]}, {"smiles": "CC(=O)CC/C(=C/c1ccc(Cl)cc1)[N+](=O)[O-]", "values": [{"measurement": "inhibition of growth at 5 µM", "setting": "HeLa", "value": "> 70", "unit": "%"}]}, {"smiles": "C=C(C#N)C(O)c1cccc([N+](=O)[O-])c1", "note": "(stereo unspecified)", "values": [{"measurement": "zone of inhibition", "setting": "Candida albicans", "value": 10, "unit": "mm"}, {"measurement": "zone of inhibition", "setting": "Aspergillus niger", "value": 14, "unit": "mm"}]}, {"smiles": "COc1ccc(/C=C(/C(NS(=O)(=O)c2ccc(C)cc2)c2ccccc2)[N+](=O)[O-])cc1", "note": "(stereo unspecified)", "values": [{"measurement": "inhibition of growth at 5 µM", "setting": "HeLa", "value": 23, "unit": "%"}]}, {"smiles": "C=C(C#N)C(O)c1ccccc1Cl", "note": "(stereo unspecified)", "values": [{"measurement": "zone of inhibition", "setting": "Candida albicans", "value": 13, "unit": "mm"}, {"measurement": "zone of inhibition", "setting": "Aspergillus niger", "value": 14, "unit": "mm"}]}, {"smiles": "C=C(C(=O)OC)C(O)c1ccccc1[N+](=O)[O-]", "note": "(stereo unspecified)", "values": [{"measurement": "zone of inhibition", "setting": "Candida albicans", "value": 12, "unit": "mm"}, {"measurement": "IC50", "setting": "Leishmania amazonensis", "value": 50.1, "unit": "µM"}, {"measurement": "zone of inhibition", "setting": "Aspergillus niger", "value": 11, "unit": "mm"}]}, {"smiles": "Cc1ccc(S(=O)(=O)NC(/C(=C/c2ccoc2)[N+](=O)[O-])c2ccco2)cc1", "note": "(stereo unspecified)", "values": [{"measurement": "inhibition of growth at 5 µM", "setting": "HeLa", "value": 33, "unit": "%"}]}, {"smiles": "Cc1ccc(S(=O)(=O)NC(/C(=C/c2cccs2)[N+](=O)[O-])c2ccco2)cc1", "note": "(stereo unspecified)", "values": [{"measurement": "inhibition of growth at 5 µM", "setting": "HeLa", "value": 28, "unit": "%"}]}, {"smiles": "Cc1ccc(S(=O)(=O)NC(/C(=C/c2cccs2)[N+](=O)[O-])c2ccccc2)cc1", "note": "(stereo unspecified)", "values": [{"measurement": "inhibition of growth at 5 µM", "setting": "HeLa", "value": 49, "unit": "%"}]}, {"smiles": "C=C(C#N)C(O)c1ccc(Cl)cc1", "note": "(stereo unspecified)", "values": [{"measurement": "zone of inhibition", "setting": "Candida albicans", "value": 13, "unit": "mm"}, {"measurement": "zone of inhibition", "setting": "Aspergillus niger", "value": 12, "unit": "mm"}]}, {"smiles": "CC(=O)CC/C(=C/c1ccccc1)[N+](=O)[O-]", "values": [{"measurement": "inhibition of growth at 5 µM", "setting": "HeLa", "value": "> 70", "unit": "%"}]}, {"smiles": "Cc1ccc(S(=O)(=O)NC(/C(=C/c2ccco2)[N+](=O)[O-])c2ccccc2)cc1", "note": "(stereo unspecified)", "values": [{"measurement": "inhibition of growth at 5 µM", "setting": "HeLa", "value": 44, "unit": "%"}]}, {"smiles": "Cc1ccc(S(=O)(=O)NC(/C(=C/c2ccc3c(c2)OCO3)[N+](=O)[O-])c2ccccc2)cc1", "note": "(stereo unspecified)", "values": [{"measurement": "inhibition of growth at 5 µM", "setting": "HeLa", "value": 29, "unit": "%"}]}, {"smiles": "C=C(C(=O)OC)C(O)c1cccc([N+](=O)[O-])c1", "note": "(stereo unspecified)", "values": [{"measurement": "IC50", "setting": "Leishmania amazonensis", "value": 452, "unit": "µM"}]}, {"smiles": "COc1ccc(/C=C(/C(NS(=O)(=O)c2ccc(C)cc2)c2ccccc2)[N+](=O)[O-])cc1OC", "note": "(stereo unspecified)", "values": [{"measurement": "inhibition of growth at 5 µM", "setting": "HeLa", "value": 35, "unit": "%"}]}, {"smiles": "C=C(C#N)C(O)c1ccccc1[N+](=O)[O-]", "note": "(stereo unspecified)", "values": [{"measurement": "zone of inhibition", "setting": "Candida albicans", "value": 13, "unit": "mm"}, {"measurement": "zone of inhibition", "setting": "Aspergillus niger", "value": 11, "unit": "mm"}]}]}
